Results taken from ChEMBL document CHEMBL5365457, “Selective HDAC3 Inhibitors with Potent In Vivo Antitumor Efficacy against Triple-Negative Breast Cancer” (J Med Chem, 2023).

Tests used:
[1] = Selectivity ratio of IC50 for cytotoxicity against human MCF-10A cells assessed as inhibition of cell growth to IC50 for cytotoxicity against […] cells assessed as inhibition of cell growth; format: toxicity, cell-based; conditions: MCF-10A cells versus 4T1 cells, read-out: Ratio IC50
[2] = Selectivity ratio of IC50 for cytotoxicity against human HEK293 cells assessed as inhibition of cell growth to IC50 for cytotoxicity against human MCF7 cells assessed as inhibition of cell growth; format: toxicity, cell-based; conditions: HEK293 cells versus MCF7 cells, read-out: Ratio IC50
[3] = Selectivity ratio of IC50 for cytotoxicity against human HEK293 cells assessed as inhibition of cell growth to IC50 for cytotoxicity against human MDA-MB-453 cells assessed as inhibition of cell growth; format: toxicity, cell-based; conditions: HEK293 cells versus MDA-MB-453 cells, read-out: Ratio IC50
[4] = system: MCF7; test: Cytotoxicity against human MCF7 cells assessed as inhibition of cell growth incubated for 72 hrs by MTT assay; format: functional, cell-based; conditions: MCF7, 72 h
[5] = Selectivity ratio of IC50 for cytotoxicity against human HCEC cells assessed as inhibition of cell growth to IC50 for cytotoxicity against mouse 4T1 cells assessed as inhibition of cell growth; format: toxicity, cell-based; conditions: HCEC cells versus 4T1 cells, read-out: Ratio IC50
[6] = Selectivity ratio of IC50 for cytotoxicity against human MCF-10A cells assessed as inhibition of cell growth to IC50 for cytotoxicity against human MDA-MB-231 cells assessed as inhibition of cell growth; format: toxicity, cell-based; conditions: MCF-10A cells versus MDA-MB-231 cells, read-out: Ratio IC50
[7] = target: Histone deacetylase 1 (Homo sapiens, UniProt Q13547); test: Inhibition of full length N-terminal human recombinant HDAC1 at 1 uM incubated for 30 mins by fluorescence based microplate assay relative to control
Sequence of Histone deacetylase 1 (Q13547 whole entry): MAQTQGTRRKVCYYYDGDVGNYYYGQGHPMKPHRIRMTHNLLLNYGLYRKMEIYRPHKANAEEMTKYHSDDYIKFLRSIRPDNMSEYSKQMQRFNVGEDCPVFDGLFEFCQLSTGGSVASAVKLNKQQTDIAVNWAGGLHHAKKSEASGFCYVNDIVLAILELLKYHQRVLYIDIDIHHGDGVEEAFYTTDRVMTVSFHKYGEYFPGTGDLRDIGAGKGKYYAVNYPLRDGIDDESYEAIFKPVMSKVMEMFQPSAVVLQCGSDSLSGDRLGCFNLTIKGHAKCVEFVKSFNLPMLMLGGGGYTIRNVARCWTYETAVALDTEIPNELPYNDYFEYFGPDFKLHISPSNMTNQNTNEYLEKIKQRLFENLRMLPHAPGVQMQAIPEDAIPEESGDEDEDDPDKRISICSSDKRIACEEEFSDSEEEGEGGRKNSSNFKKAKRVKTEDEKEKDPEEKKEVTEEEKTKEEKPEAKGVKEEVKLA

[8] = Selectivity ratio of IC50 for cytotoxicity against human HCEC cells assessed as inhibition of cell growth to IC50 for cytotoxicity against human MDA-MB-453 cells assessed as inhibition of cell growth; format: toxicity, cell-based; conditions: HCEC cells versus MDA-MB-453 cells, read-out: Ratio IC50
[9] = target: Histone deacetylase 2 (Homo sapiens, UniProt Q92769); test: Inhibition of human recombinant HDAC2 at 1 uM incubated for 30 mins by fluorescence based microplate assay relative to control
Sequence of Histone deacetylase 2 (Q92769 whole entry): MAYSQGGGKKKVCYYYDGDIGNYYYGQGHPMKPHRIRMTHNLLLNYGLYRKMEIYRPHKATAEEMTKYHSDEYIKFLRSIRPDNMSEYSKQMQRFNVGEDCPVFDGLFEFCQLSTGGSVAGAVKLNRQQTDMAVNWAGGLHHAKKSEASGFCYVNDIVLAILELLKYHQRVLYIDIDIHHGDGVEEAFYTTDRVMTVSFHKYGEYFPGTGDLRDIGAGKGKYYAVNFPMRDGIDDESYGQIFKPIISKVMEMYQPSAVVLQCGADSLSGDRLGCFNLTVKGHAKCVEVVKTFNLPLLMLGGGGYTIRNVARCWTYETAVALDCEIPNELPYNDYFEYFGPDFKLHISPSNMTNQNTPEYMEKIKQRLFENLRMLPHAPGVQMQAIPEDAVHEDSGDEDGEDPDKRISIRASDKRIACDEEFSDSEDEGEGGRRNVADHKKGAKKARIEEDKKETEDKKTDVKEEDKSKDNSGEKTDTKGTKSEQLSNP

[10] = Selectivity ratio of IC50 for cytotoxicity against human HEK293 cells assessed as inhibition of cell growth to IC50 for cytotoxicity against mouse 4T1 cells assessed as inhibition of cell growth; format: toxicity, cell-based; conditions: HEK293 cells versus 4T1 cells, read-out: Ratio IC50
[11] = target: Histone deacetylase 3 (Homo sapiens, UniProt O15379); test: Inhibition of human recombinant HDAC3 at 1 uM measured after 30 mins by fluorescence based microplate assay relative to control
Sequence of Histone deacetylase 3 (O15379 whole entry): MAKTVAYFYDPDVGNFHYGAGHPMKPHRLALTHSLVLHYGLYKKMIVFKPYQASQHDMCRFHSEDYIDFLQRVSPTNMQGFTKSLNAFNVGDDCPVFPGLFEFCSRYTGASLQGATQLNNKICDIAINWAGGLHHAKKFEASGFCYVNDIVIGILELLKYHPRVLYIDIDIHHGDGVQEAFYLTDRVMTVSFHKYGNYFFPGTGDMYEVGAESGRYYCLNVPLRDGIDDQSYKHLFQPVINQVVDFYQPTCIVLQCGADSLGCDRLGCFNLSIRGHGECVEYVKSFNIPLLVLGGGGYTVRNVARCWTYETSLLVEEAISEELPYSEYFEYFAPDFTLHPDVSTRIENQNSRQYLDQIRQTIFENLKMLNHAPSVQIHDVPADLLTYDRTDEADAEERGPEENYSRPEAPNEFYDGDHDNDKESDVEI

[12] = Selectivity ratio of IC50 for cytotoxicity against human HCEC cells assessed as inhibition of cell growth to IC50 for cytotoxicity against human MCF7 cells assessed as inhibition of cell growth; format: toxicity, cell-based; conditions: HCEC cells versus MCF7 cells, read-out: Ratio IC50
[13] = Selectivity ratio of IC50 for cytotoxicity against human HEK293 cells assessed as inhibition of cell growth to IC50 for cytotoxicity against human MDA-MB-231 cells assessed as inhibition of cell growth; format: toxicity, cell-based; conditions: HEK293 cells versus MDA-MB-231 cells, read-out: Ratio IC50
[14] = system: MDA-MB-453; test: Cytotoxicity against human MDA-MB-453 cells assessed as inhibition of cell growth incubated for 72 hrs by MTT assay; format: functional, cell-based; conditions: MDA-MB-453, 72 h
[15] = Selectivity ratio of IC50 for cytotoxicity against human MCF-10A cells assessed as inhibition of cell growth to IC50 for cytotoxicity against human MCF7 cells assessed as inhibition of cell growth; format: toxicity, cell-based; conditions: MCF-10A cells versus MCF7 cells, read-out: Ratio IC50
[16] = system: 4T1; test: Cytotoxicity against mouse 4T1 cells assessed as inhibition of cell growth incubated for 72 hrs by MTT assay; format: functional, cell-based; conditions: 4T1, 72 h
[17] = Cytotoxicity against human MCF-10A cells assessed as inhibition of cell growth incubated for 72 hrs by MTT assay; format: toxicity, cell-based
[18] = Cytotoxicity against human HEK293 cells assessed as inhibition of cell growth incubated for 72 hrs by MTT assay; format: toxicity, cell-based
[19] = Selectivity ratio of IC50 for cytotoxicity against human MCF-10A cells assessed as inhibition of cell growth to IC50 for cytotoxicity against human MDA-MB-453 cells assessed as inhibition of cell growth; format: toxicity, cell-based; conditions: MCF-10A cells versus MDA-MB-453 cells, read-out: Ratio IC50
[20] = Selectivity ratio of IC50 for cytotoxicity against human HCEC cells assessed as inhibition of cell growth to IC50 for cytotoxicity against human MDA-MB-231 cells assessed as inhibition of cell growth; format: toxicity, cell-based; conditions: HCEC cells versus MDA-MB-231 cells, read-out: Ratio IC50
[21] = Cytotoxicity against human HCEC cells assessed as inhibition of cell growth incubated for 72 hrs by MTT assay; format: toxicity, cell-based; conditions: for IC50 at 72 h: human, HCEC cells
[22] = system: MDA-MB-231; test: Cytotoxicity against human MDA-MB-231 cells assessed as inhibition of cell growth incubated for 72 hrs by MTT assay; format: functional, cell-based; conditions: MDA-MB-231, 72 h

| SMILES | selectivity ratio [1] | selectivity ratio [2] | selectivity ratio [3] | IC50 [4] | selectivity ratio [5] | selectivity ratio [6] | selectivity ratio [8] | selectivity ratio [10] | inhibition [11] | selectivity ratio [12] | selectivity ratio [13] | IC50 [14] | selectivity ratio [15] | IC50 [16] | IC50 at 72 h [17] | IC50 at 72 h [18] | selectivity ratio [19] | selectivity ratio [20] | IC50 at 72 h [21] | IC50 [22] | also measured |
| --- | --- | --- | --- | --- | --- | --- | --- | --- | --- | --- | --- | --- | --- | --- | --- | --- | --- | --- | --- | --- | --- |
| CCCNNC(=O)c1cnc(NC(=O)c2ccc3[nH]ccc3c2)cn1 | > 40 | > 40 | > 40 | 2.03 µM | > 40 | > 40 | > 40 | > 40 | > 70% | > 40 | > 40 | 2.19 µM | > 40 | 0.71 µM | 125 µM | 138 µM | > 40 | > 40 | 180 µM | 0.92 µM | inhibition [7]: < 17%; inhibition [9]: < 17% |
| CCCCNNC(=O)c1cnc(NCc2ccc(OC)cc2)cn1 | > 40 | > 40 | > 40 | 2.59 µM | > 40 | > 40 | > 40 | > 40 | > 70% | > 40 | > 40 | 2.68 µM | > 40 | 0.93 µM | 109 µM | 107 µM | > 40 | > 40 | – | 0.97 µM | IC50 ([21]; hcec): 1370 µM |
| CCCNNC(=O)c1cnc(NCc2ccccc2)cn1 | > 40 | > 40 | > 40 | 1.12 µM | > 40 | > 40 | > 40 | > 40 | > 70% | > 40 | > 40 | 2.76 µM | > 40 | 1.15 µM | 114 µM | 110 µM | > 40 | > 40 | 140 µM | 1.23 µM | inhibition [7]: < 17%; inhibition [9]: < 17% |
| CCCNNC(=O)c1cnccn1 | > 40 | > 40 | > 40 | 1.39 µM | > 40 | > 40 | > 40 | > 40 | – | > 40 | > 40 | 2.49 µM | > 40 | 1.14 µM | 117 µM | 134 µM | > 40 | > 40 | 128 µM | 1.07 µM | – |
| CCCNNC(=O)c1cnc(NC(=O)c2ccc3ncccc3c2)cn1 | > 40 | > 40 | > 40 | 1.01 µM | > 40 | > 40 | > 40 | > 40 | > 70% | > 40 | > 40 | 1.82 µM | > 40 | 0.59 µM | 140 µM | 126 µM | > 40 | > 40 | 131 µM | 0.87 µM | inhibition [7]: < 17%; inhibition [9]: < 17% |
| CCCCNNC(=O)c1cnc(Nc2cccc3ccccc23)cn1 | > 40 | > 40 | > 40 | 4.16 µM | > 40 | > 40 | > 40 | > 40 | – | > 40 | > 40 | 4.67 µM | > 40 | 0.98 µM | 114 µM | 189 µM | > 40 | > 40 | 151 µM | 2.02 µM | – |
| CCCNNC(=O)c1cnc(Nc2ccccc2)cn1 | > 40 | > 40 | > 40 | 3.28 µM | > 40 | > 40 | > 40 | > 40 | > 70% | > 40 | > 40 | 5.44 µM | > 40 | 2.76 µM | 205 µM | 218 µM | > 40 | > 40 | 196 µM | 1.88 µM | – |
| CCCCNNC(=O)c1cnc(NCc2ccccc2)cn1 | > 40 | > 40 | > 40 | 2.16 µM | > 40 | > 40 | > 40 | > 40 | > 70% | > 40 | > 40 | 3.33 µM | > 40 | 1.6 µM | 113 µM | 133 µM | > 40 | > 40 | 129 µM | 132 µM | – |
| CCCNNC(=O)c1cnc(N2CCCCC2)cn1 | > 40 | > 40 | > 40 | 2.44 µM | > 40 | > 40 | > 40 | > 40 | – | > 40 | > 40 | 2.87 µM | > 40 | 0.89 µM | 110 µM | 118 µM | > 40 | > 40 | 163 µM | 132 µM | – |
| CCCNNC(=O)c1cnc(NC(C)=O)cn1 | > 40 | > 40 | > 40 | 1.21 µM | > 40 | > 40 | > 40 | > 40 | – | > 40 | > 40 | 1.93 µM | > 40 | 0.92 µM | 142 µM | 118 µM | > 40 | > 40 | 164 µM | 0.97 µM | – |
| CCCCNNC(=O)c1cnccn1 | > 40 | > 40 | > 40 | 2.44 µM | > 40 | > 40 | > 40 | > 40 | – | > 40 | > 40 | 2.52 µM | > 40 | 0.88 µM | 103 µM | 101 µM | > 40 | > 40 | 175 µM | 1.17 µM | – |
